Measured values: patent US20260274856A1, “COVALENT CEREBLON LIGANDS” (C4 THERAPEUTICS, INC., priority 2023, published 2026)
Like-named read-outs stand apart in the source and are kept apart here.

Legend:
[1] = tested on: A375—NRASQ^61K cells (cell line A375.11); assay: CTGlo (CellTiter-Glo 2.0) Cell Viability Assay; format: cell-based
Method: Compounds of the present invention were tested for their effect on the viability of A375—NRASQ^61K cells by quantification of ATP using the CellTiter-Glo® 2.0 Cell Viability Assay (Catalog No. G9243, Promega, Madison, WI, USA). This assay produces a luminescent signal in the presence of ATP, which is indicative of metabolically active cells, making the luminescence readout proportional to the number of viable cells. A375—NRASQ^61K cells, also referred to here as cell line A375.11, (harboring BRAF homozygous V600E mutation and NRAS homozygous Q61K mutation) were purchased from ATCC (Catalog No. CRL-1619IG-2, Manassas, VA, USA).
Cells were also plated to a 384-well plate with no compound treatment, to which CellTiter-Glo® reagent was added and luminescence was read right after plating to act as a baseline signal at time of plating (To).
DMSO treated cells with no CellTiter-Glo® reagent added were used as the background or positive control (P). Viability was determined by subtracting out the average background signal (P) and normalized to the average untreated signal (N) set at 100%.

GSPT1 = GSPT1 (Homo sapiens, UniProt P15170+Q96SW2); assay: GSPT1 HiBiT Degradation Assay in 293T.114 cells; conditions: for HIBIT-Degradation 293T.114 GSPT1 24 hours IP nM / DC50: 293T.114 cells, 24 hours; for HIBIT-Degradation 293T.114 GSPT1 24 hours IP nM: inflection point of the dose-response curve; for DC50: read-out: HIBIT-Degradation 293T.114 GSPT1 24 hours DC50 nM; for Emax: read-out: HIBIT-Degradation 293T.114 GSPT1 24 hours Emax
GSPT1, sequence (Q96SW2 whole entry): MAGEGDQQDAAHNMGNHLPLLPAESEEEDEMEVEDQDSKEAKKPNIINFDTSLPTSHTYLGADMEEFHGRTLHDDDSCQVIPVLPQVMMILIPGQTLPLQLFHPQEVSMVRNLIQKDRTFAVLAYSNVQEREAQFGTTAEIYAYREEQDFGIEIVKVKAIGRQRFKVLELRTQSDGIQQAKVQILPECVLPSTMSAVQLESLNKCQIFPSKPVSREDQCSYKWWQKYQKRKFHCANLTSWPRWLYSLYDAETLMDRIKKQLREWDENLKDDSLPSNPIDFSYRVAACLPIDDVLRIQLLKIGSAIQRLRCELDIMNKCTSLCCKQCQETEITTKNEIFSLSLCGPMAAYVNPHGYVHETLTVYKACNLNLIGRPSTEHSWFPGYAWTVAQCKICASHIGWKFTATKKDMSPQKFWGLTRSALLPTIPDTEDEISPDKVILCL
GSPT1, sequence (Q16531 2-1140, further chain): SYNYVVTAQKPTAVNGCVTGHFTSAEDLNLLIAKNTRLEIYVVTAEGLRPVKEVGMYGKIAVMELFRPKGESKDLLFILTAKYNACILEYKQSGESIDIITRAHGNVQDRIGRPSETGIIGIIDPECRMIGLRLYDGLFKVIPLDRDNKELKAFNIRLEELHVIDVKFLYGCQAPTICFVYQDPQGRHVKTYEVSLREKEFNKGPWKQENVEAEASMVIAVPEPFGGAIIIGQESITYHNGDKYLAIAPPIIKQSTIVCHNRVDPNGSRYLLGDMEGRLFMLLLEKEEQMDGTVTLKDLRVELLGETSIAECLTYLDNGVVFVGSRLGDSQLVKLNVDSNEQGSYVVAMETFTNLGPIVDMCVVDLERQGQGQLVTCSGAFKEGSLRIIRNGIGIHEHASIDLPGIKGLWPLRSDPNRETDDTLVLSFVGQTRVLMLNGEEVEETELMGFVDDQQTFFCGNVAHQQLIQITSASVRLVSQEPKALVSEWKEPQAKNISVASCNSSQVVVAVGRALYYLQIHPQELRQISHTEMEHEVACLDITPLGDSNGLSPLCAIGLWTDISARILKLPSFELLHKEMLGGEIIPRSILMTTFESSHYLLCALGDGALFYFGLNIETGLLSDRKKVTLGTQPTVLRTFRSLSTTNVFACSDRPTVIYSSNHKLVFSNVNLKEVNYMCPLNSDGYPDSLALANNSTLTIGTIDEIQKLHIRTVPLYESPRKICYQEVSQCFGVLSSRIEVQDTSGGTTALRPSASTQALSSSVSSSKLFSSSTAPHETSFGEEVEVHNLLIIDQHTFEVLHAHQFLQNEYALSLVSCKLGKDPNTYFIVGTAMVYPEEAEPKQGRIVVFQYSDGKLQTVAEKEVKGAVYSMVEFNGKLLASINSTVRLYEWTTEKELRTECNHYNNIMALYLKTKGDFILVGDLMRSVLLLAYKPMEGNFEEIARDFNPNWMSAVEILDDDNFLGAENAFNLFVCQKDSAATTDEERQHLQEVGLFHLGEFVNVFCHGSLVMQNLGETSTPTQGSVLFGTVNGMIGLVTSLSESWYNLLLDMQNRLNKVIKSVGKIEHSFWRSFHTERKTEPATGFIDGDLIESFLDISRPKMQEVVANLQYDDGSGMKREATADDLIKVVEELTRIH
GSPT1, sequence (P15170 whole entry): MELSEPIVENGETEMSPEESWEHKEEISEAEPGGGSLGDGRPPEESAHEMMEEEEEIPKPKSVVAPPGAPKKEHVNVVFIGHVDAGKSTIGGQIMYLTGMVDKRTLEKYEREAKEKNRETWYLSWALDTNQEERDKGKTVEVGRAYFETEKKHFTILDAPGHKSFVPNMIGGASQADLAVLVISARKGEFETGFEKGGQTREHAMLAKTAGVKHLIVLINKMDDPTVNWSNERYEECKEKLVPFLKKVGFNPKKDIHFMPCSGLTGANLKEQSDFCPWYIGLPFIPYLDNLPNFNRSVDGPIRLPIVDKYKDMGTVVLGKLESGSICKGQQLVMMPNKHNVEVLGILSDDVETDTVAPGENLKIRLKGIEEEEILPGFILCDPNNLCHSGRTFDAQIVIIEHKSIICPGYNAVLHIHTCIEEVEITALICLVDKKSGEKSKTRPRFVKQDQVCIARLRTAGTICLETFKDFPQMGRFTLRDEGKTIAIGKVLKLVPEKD
Method: Upon cell lysis and addition of the complementing LgBiT polypeptide and its substrate, the HiBiT polypeptide on GSPT1 allows reconstitution of an enzyme that activates its substrate to produce a luminescent signal that is directly proportional to the amount of HiBiT-tagged GSPT1. […] Cell culture flasks and 384-well microplates were acquired from VWR (Radnor, PA, USA).
Cellular GSPT1 protein level was determined based on quantification of luminescent signal using the Nano-Glo® HiBiT Lytic Assay kit (Promega). Following the 24 hr treatment time, Nano-Glo® HiBiT Lytic Assay reagents were added to the cells per the manufacturer's instructions by adding 30 µl of reagent per well, and the luminescence signal was acquired on the PHERAstar plate reader (BMG Labtech, Ortenberg, Germany). Cells treated with DMS0 only (no test compound treatment) were used as the negative control (N). Media only (no cells added) withNano-Glo reagent additionwasused as the background orpositive control (P). The percent response of compound treated samples were calculated by subtracting out the 5 background signal (P) and normalizing to the DMS0 control (N) as follows. 0% Response=100 x (Treated Signal - Average (P))/(Average (N) - Average (P)).
Data were analyzed with a 4-parameter logistic fit to generate sigmoidal dose-response curves. DC50 values were computed as the concentrations where the fitted curves cross the 5000 response level.

[2] = 96 h, IP, read-out: CTGlo A375.11 96 hours IP
[3] = 96 hours, lowest % viability achieved
[4] = half-maximal inhibition of cell growth, table title: A375.11 96 hours, read-out: CTGlo A375.11 96 hours GI50
[5] = 96 hours, IP, read-out: CTGlo A375.11 96 hours IP

| SMILES | GI50 [1, 2] [µM] | Emax [1, 3] [%] | GI50 [1, 4] [µM] | GI50 [1, 5] [µM] | also measured |
| --- | --- | --- | --- | --- | --- |
| CCN(C)S(=O)(=O)Nc1ccc(F)c(Oc2ccc3ncn([C@H]4COC5(CCN(C(=O)CN6CCN(c7ccc(C8CCC(=O)NC8=O)cc7OS(=O)(=O)F)CC6)CC5)C4)c(=O)c3c2)c1C#N (stereo partly drawn) [drawing 1170] | < 1 | 60 to 95 | > 10 | – | – |
| CCN(C)S(=O)(=O)Nc1ccc(F)c(Oc2ccc3ncn([C@@H]4COC5(CCN(C(=O)CN6CCC(c7ccc(N8CCC(=O)NC8=O)cc7OS(=O)(=O)F)CC6)CC5)C4)c(=O)c3c2)c1C#N [drawing 1171] | > 10 | 60 to 95 | > 10 | – | – |
| CCN(C)S(=O)(=O)Nc1ccc(F)c(Oc2ccc3ncn([C@H]4COC5(CCN(C(=O)CN6CCN(c7ccc(N8CCC(=O)NC8=O)cc7OS(=O)(=O)F)CC6)CC5)C4)c(=O)c3c2)c1C#N [drawing 1172] | > 10 | 60 to 95 | > 10 | – | – |
| CCN(C)S(=O)(=O)Nc1ccc(F)c(Oc2ccc3ncn([C@@H]4COC5(CCN(C(=O)CN6CCC(c7ccc(N8CCC(=O)NC8=O)cc7OS(C)(=O)=O)CC6)CC5)C4)c(=O)c3c2)c1C#N [drawing 1173] | – | 60 to 95 | > 10 | 1 to 10 | – |
| CCN(C)S(=O)(=O)Nc1ccc(F)c(Oc2ccc3ncn([C@H]4COC5(CCN(C(=O)CN6CCC(c7ccc(N8CCC(=O)NC8=O)cc7OS(C)(=O)=O)CC6)CC5)C4)c(=O)c3c2)c1C#N [drawing 1174] | – | < 60 | 1 to 10 | 1 to 10 | – |
| CCN(C)S(=O)(=O)Nc1ccc(F)c(Oc2ccc3ncn([C@@H]4COC5(CCN(C(=O)CN6CCC(c7ccc(OC8CCC(=O)NC8=O)cc7S(=O)(=O)F)CC6)CC5)C4)c(=O)c3c2)c1C#N (stereo partly drawn) [drawing 1175] | > 10 | < 60 | > 10 | – | – |
| CCN(C)S(=O)(=O)Nc1ccc(F)c(Oc2ccc3ncn([C@H]4COC5(CCN(C(=O)CN6CCC(c7ccc(NC8CCC(=O)NC8=O)cc7OS(C)(=O)=O)CC6)CC5)C4)c(=O)c3c2)c1C#N (stereo partly drawn) [drawing 1176] | – | < 60 | > 10 | 1 to 10 | – |
| CCN(C)S(=O)(=O)Nc1ccc(F)c(Oc2ccc3ncn([C@@H]4COC5(CCN(C(=O)CN6CCC(c7ccc(NC8CCC(=O)NC8=O)cc7S(=O)(=O)F)CC6)CC5)C4)c(=O)c3c2)c1C#N (stereo partly drawn) [drawing 1177] | > 10 | 60 to 95 | > 10 | – | – |
| CCN(C)S(=O)(=O)Nc1ccc(F)c(Oc2ccc3ncn([C@H]4COC5(CCN(C(=O)CN6CCC(c7ccc(NC8CCC(=O)NC8=O)cc7S(=O)(=O)F)CC6)CC5)C4)c(=O)c3c2)c1C#N (stereo partly drawn) [drawing 1178] | > 10 | 60 to 95 | > 10 | – | – |
| CCN(C)S(=O)(=O)Nc1ccc(F)c(Oc2ccc3ncn([C@H]4COC5(CCN(C(=O)CN6CCC(c7ccc(OC8CCC(=O)NC8=O)cc7OS(=O)(=O)F)CC6)CC5)C4)c(=O)c3c2)c1C#N (stereo partly drawn) [drawing 1179] | 1 to 10 | 60 to 95 | > 10 | – | – |
| CCN(C)S(=O)(=O)Nc1ccc(F)c(Oc2ccc3ncn([C@H]4COC5(CCN(C(=O)CN6CCC(c7ccc(N8CCC(=O)NC8=O)cc7OS(=O)(=O)F)CC6)CC5)C4)c(=O)c3c2)c1C#N [drawing 1180] | 1 to 10 | 60 to 95 | > 10 | – | – |
| CCN(C)S(=O)(=O)Nc1ccc(F)c(Oc2ccc3ncn([C@H]4COC5(CCN(C(=O)CN6CCC(c7ccc(OC8CCC(=O)NC8=O)cc7S(=O)(=O)F)CC6)CC5)C4)c(=O)c3c2)c1C#N (stereo partly drawn) [drawing 1181] | > 10 | 60 to 95 | > 10 | – | – |
| CCN(C)S(=O)(=O)Nc1ccc(F)c(Oc2ccc3ncn([C@@H]4COC5(CCN(C(=O)CN6CCC(c7ccc(C8CCC(=O)NC8=O)cc7OS(C)(=O)=O)CC6)CC5)C4)c(=O)c3c2)c1C#N (stereo partly drawn) [drawing 1182] | – | 60 to 95 | > 10 | > 10 | – |
| CCN(C)S(=O)(=O)Nc1ccc(F)c(Oc2ccc3ncn([C@H]4COC5(CCN(C(=O)CN6CCN(c7ccc(C8CCC(=O)NC8=O)cc7OS(=O)(=O)F)CC6)CC5)C4)c(=O)c3c2)c1C#N (stereo partly drawn) [drawing 1183] | – | – | > 10 | – | CTGlo A375.11 96 hours IP nM ([1]; 96 hours, IP): ** (<10 μM and >1 μM is **); CTGlo A375.11 96 hours Emax [1, 3]: ** (<95% and >60% is **) |
| CCN(C)S(=O)(=O)Nc1ccc(F)c(Oc2ccc3ncn([C@H]4COC5(CCN(C(=O)CN6CCC(c7ccc(OC8CCC(=O)NC8=O)cc7OS(C)(=O)=O)CC6)CC5)C4)c(=O)c3c2)c1C#N (stereo partly drawn) [drawing 1184] | – | 60 to 95 | > 10 | > 10 | – |
| CCN(C)S(=O)(=O)Nc1ccc(F)c(Oc2ccc3ncn([C@@H]4COC5(CCN(C(=O)CN6CCN(c7ccc(N8CCC(=O)NC8=O)cc7OS(=O)(=O)F)CC6)CC5)C4)c(=O)c3c2)c1C#N [drawing 1185] | > 10 | 60 to 95 | > 10 | – | – |
| CCN(C)S(=O)(=O)Nc1ccc(F)c(Oc2ccc3ncn([C@@H]4COC5(CCN(C(=O)CN6CCC(c7ccc(OC8CCC(=O)NC8=O)cc7OS(=O)(=O)F)CC6)CC5)C4)c(=O)c3c2)c1C#N (stereo partly drawn) [drawing 1186] | > 10 | 60 to 95 | > 10 | – | – |
| CCN(C)S(=O)(=O)Nc1ccc(F)c(Oc2ccc3ncn([C@@H]4COC5(CCN(C(=O)CN6CCC(c7ccc(OC8CCC(=O)NC8=O)cc7OS(C)(=O)=O)CC6)CC5)C4)c(=O)c3c2)c1C#N (stereo partly drawn) [drawing 1187] | – | 60 to 95 | > 10 | > 10 | – |
| CCN(C)S(=O)(=O)Nc1ccc(F)c(Oc2ccc3ncn([C@@H]4COC5(CCN(C(=O)CN6CCC(c7ccc(NC8CCC(=O)NC8=O)cc7OS(C)(=O)=O)CC6)CC5)C4)c(=O)c3c2)c1C#N (stereo partly drawn) [drawing 1188] | – | > 95 | > 10 | > 10 | – |
| CCN(C)S(=O)(=O)Nc1ccc(F)c(Oc2ccc3ncn([C@@H]4COC5(CCN(C(=O)CN6CCC(c7ccc(C8CCC(=O)NC8=O)cc7OS(=O)(=O)F)CC6)CC5)C4)c(=O)c3c2)c1C#N (stereo partly drawn) [drawing 1231] | – | – | – | – | HIBIT-Degradation 293T.114 GSPT1 24 hours IP nM (GSPT1): ** (<10 μM and >1 μM is **); DC50 (GSPT1): > 10000 nM; Emax (GSPT1): < 60% |
| CCN(C)S(=O)(=O)Nc1ccc(F)c(Oc2ccc3ncn([C@H]4COC5(CCN(C(=O)CN6CCN(c7ccc(C8CCC(=O)NC8=O)cc7OS(=O)(=O)F)CC6)CC5)C4)c(=O)c3c2)c1C#N (stereo partly drawn) [drawing 1232] | – | – | – | – | HIBIT-Degradation 293T.114 GSPT1 24 hours IP nM (GSPT1): ** (<10 μM and >1 μM is **); DC50 (GSPT1): > 10000 nM; Emax (GSPT1): 60 to 95% |
